Laboratory results as given in patent US20110207740A1, “PHARMACEUTICAL COMPOSITIONS” (priority 2003, published 2011).

Tests used:
[1] = Formula 1 concentration in acidified propylene glycol stock solutions and after dilution with deionized water; format: physicochemical
Text: [table] […] In this way, the concentration of propylene glycol was decreased 10 fold from the initial concentration of 86% to a final concentration of 8.6%. […] Similarly, Formula 1 solubility should not be affected by the 2-10× dilution of sodium docusate as this surfactant will still be present at levels above its critical micelle concentration (CMC).

[2] = pKa (titrated); format: physicochemical
Protocol: As expected, solubility improves with ionization. However, even when essentially all of the compound carries a +1 charge, the aqueous solubility remains poor, e.g., at pH 4 the solubility is <2 μg/mL. Similarly, at pH 2 the average charge will be +2 but, the solubility for this strongly charged compound is only 1 mg/mL. Based on the pKa values, under still more acidic conditions this compound will have an average charge of +3 and the solubility might be expected to increase further. However, no further increase in solubility has been achieved, i.e., at pH 1.0 (0.1 NHCL) the solubility of this compound decreases to <1 mg/mL. This type of decrease in solubility is consistent with the formation of insoluble chloride salts.

[3] = Non-aqueous solubility (ethanol, propylene glycol, soybean oil); format: physicochemical
Text: However, as shown in the Table 1 below, the A2a receptor antagonist compound described above has both low aqueous and non-aqueous solubility.

[4] = Aqueous solubility (buffers, pH dependence); format: physicochemical
Text: As expected, solubility improves with ionization. […] This type of decrease in solubility is consistent with the formation of insoluble chloride salts. […] However, as shown in the Table 1 below, the A2a receptor antagonist compound described above has both low aqueous and non-aqueous solubility.

[5] = Formula I:docusate complex dissolved in propylene glycol (Example 1); format: physicochemical
Protocol: A non-aqueous embodiment of the formulations of the present invention was prepared as set forth by the following procedure. A first solution was prepared by adding 100 mg of the compound of Formula I above to 500 mL of 0.01 NHCL. Next, a second Solution was prepared by adding 20 grams of sodium docusate to 500 mL of 0.01 NHCL. These two solutions were mixed and a complex of the compound of Formula I and docusate sodium was precipitated from solution. The precipitate was thereafter separated by centrifuging the mixture, decanting the supernatant and then drying the residue complex.
The dried residue was then dissolved in a small quantity of propylene glycol and the concentration of the compound of Formula I in this solution was determined to be 2.5 mg/mL.

[6] = Precipitation from acidic aqueous solution in presence of sodium docusate; format: physicochemical; conditions: pH 2.0, 0.1 mg/mL aqueous solution
Text: For aqueous formulations of the present invention, surfactants such sodium docusate are typically added to improve aqueous solubility. However, sodium docusate actually decreases the aqueous solubility of 7-[2-[4-[4-(methoxyethoxy)phenyl]1-piperazinyl]ethyl]-2-(2-furanyl)-7H-pyrazolo[4,3-e]triazolo[1,5-c]pyrimidin-5-amine under acidic conditions. […] More specifically, by “ion-pair” it is meant to mean the non-covalent bonding of two oppositely charged molecules.

[7] = target: A2a receptor (Homo sapiens, UniProt P29274); conditions: cited from earlier work
A2a receptor, sequence (P29274 whole entry): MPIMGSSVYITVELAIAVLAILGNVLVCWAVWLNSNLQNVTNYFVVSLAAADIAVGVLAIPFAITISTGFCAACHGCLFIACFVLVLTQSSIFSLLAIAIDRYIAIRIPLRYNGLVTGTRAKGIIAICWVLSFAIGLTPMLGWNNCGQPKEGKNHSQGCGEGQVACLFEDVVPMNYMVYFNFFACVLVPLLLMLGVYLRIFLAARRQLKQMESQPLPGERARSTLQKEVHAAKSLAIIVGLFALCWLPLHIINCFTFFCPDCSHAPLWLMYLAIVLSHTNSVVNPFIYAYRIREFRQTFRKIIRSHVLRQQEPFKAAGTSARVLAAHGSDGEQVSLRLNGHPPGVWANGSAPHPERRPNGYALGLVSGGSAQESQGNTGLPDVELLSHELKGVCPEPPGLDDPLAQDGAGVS

[8] = Extraction of Formula 1 from stock solutions into soybean oil; format: physicochemical; conditions: excess Formula 1

## COCCOc1ccc(N2CCN(CCn3ncc4c3nc(N)n3nc(-c5ccco5)nc43)CC2)cc1 [Formula 1, 7-[2-[4-[4-(methoxyethoxy)phenyl]1-piperazinyl]ethyl]-2-(2-furanyl)-7H-pyrazolo[4,3-e]triazolo[1,5-c]pyrimidin-5-amine]
[1]; Stock solution 1: acidified propylene glycol (86% v/v, citric acid/HCl to pH 3.4), undiluted
  Formula 1 concentration, 86% PG/(Stock): 9.8 mg/mL
[1]; Stock solution 1: acidified propylene glycol, diluted with deionized water DF2
  Formula 1 concentration, 43% PG/DF2: 4.6 mg/mL
[1]; Stock solution 1: acidified propylene glycol, diluted with deionized water DF4
  Formula 1 concentration, 17% PG/DF4: 1.9 mg/mL
[1]; Stock solution 1: acidified propylene glycol, diluted with deionized water DF10
  Formula 1 concentration, 8.6% PG/DF10: 0.97 mg/mL
[1]; Stock solution 2: acidified propylene glycol + 36 mg/mL Tween 80, undiluted
  Formula 1 concentration, 86% PG/(Stock): 8.7 mg/mL
[1]; Stock solution 2: acidified propylene glycol + Tween 80, diluted with deionized water DF2
  Formula 1 concentration, 43% PG/DF2: 4.0 mg/mL
[1]; Stock solution 2: acidified propylene glycol + Tween 80, diluted with deionized water DF4
  Formula 1 concentration, 17% PG/DF4: 1.8 mg/mL
[1]; Stock solution 2: acidified propylene glycol + Tween 80, diluted with deionized water DF10
  Formula 1 concentration, 8.6% PG/DF10: 0.78 mg/mL
[1]; Stock solution 3: acidified propylene glycol + 61 mg/mL docusate sodium, undiluted
  Formula 1 concentration, 86% PG/(Stock): 9.2 mg/mL
[1]; Stock solution 3: acidified propylene glycol + docusate sodium, diluted with deionized water DF2
  Formula 1 concentration, 43% PG/DF2: 0.14 mg/mL
[1]; Stock solution 3: acidified propylene glycol + docusate sodium, diluted with deionized water DF4
  Formula 1 concentration, 17% PG/DF4: 0.037 mg/mL
[1]; Stock solution 3: acidified propylene glycol + docusate sodium, diluted with deionized water DF10
  Formula 1 concentration, 8.6% PG/DF10: 0.011 mg/mL
[1]; acidified propylene glycol without docusate
  Maximum concentration relative to solubility in propylene glycol: 300 times
[1]; direct addition to acidified propylene glycol and docusate
  Concentration relative to solubility in propylene glycol: greater than 300 times
[1]; propylene glycol solution acidified to ionize the active compound
  Concentration in acidified propylene glycol solution: more than 9 mg/mL
[2]
  pKa: 6.87
[3]; ethanol, organic solvent or mixture
  solubility: 100 µg/mL
[3]; propylene glycol, organic solvent or mixture, Propylene Glycol (neutral compound)
  solubility: ~30 µg/mL
[3]; soybean oil, oil or lipid
  solubility: < 70 µg/mL
[4]; 0.1 N HCl, pH 1, simulated gastric fluid, pH 1.0 (0.1 NHCL)
  solubility: < 1000 µg/mL
[4]; Buffer pH 4
  Aqueous Solubility: 1.7 µg/mL
[4]; aqueous buffer, pH 3, aqueous buffer, Buffer pH 3
  solubility: 105 µg/mL
[4]; aqueous buffer, pH 4, aqueous buffer, Buffer pH 4
  solubility: < 2 µg/mL
[4]; aqueous buffer, pH 7.4, aqueous buffer, Buffer pH 7.4
  solubility: < 0.005 µg/mL
[4]; aqueous medium, pH 2, simulated gastric fluid, pH 2
  solubility: 1000 µg/mL
[4]; neutral pH
  Solubility in aqueous media: virtually insoluble
[5]; Formula I:docusate complex in propylene glycol
  Solubility relative to compound alone in propylene glycol: more than 80 fold
[5]; dried Formula I:docusate sodium complex dissolved in propylene glycol
  Concentration of the compound of Formula I in propylene glycol solution: 2.5 mg/mL
[5]; formulated with docusate sodium in acidified propylene glycol
  Concentration relative to active compound and propylene glycol only: 80 times
[6]
  Behaviour of solution in presence of sodium docusate: precipitate out of solution
[7]
  Potency as an A2a receptor antagonist: considerable potency
[8]; extracted from stock solution 1 (acidified propylene glycol)
  Soybean Oil Amt. Extracted: 0.006 mg/mL
[8]; extracted from stock solution 2 (acidified propylene glycol + Tween 80)
  Soybean Oil Amt. Extracted: 0.007 mg/mL
[8]; extracted from stock solution 3 (acidified propylene glycol + docusate sodium)
  Soybean Oil Amt. Extracted: 0.28 mg/mL
